Laboratory results taken from patent US6642392B1 (priority 1997, dated 2003).
Read-outs that look alike come from different tables or passages of the source.

Columns and labels:
Format in all cases: in vivo
[1] = tested on: Botrytis cinerea; assay: Test E: gray mold, preventive spray on cucumber seedlings; details: for Test E disease control rating: gray mold on cucumber; for Test E disease control rating (100 = 100% disease control, 0 = no disease control): cucumber seedlings sprayed to run-off, inoculated the following day, rating relative to controls, unmarked compounds (standard test rate)
Outline: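 Preventive spray on cucumber seedlings used a suspension (3% acetone, 250 ppm Trem 014), applied to run-off one day before inoculation with Botrytis cinerea spores. Plants were held 48 h at 20° C in saturated air, then 5 days at 20° C. Percent disease control was scored relative to untreated plants.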

[2] = tested on: Phytophthora infestans; details: for Test D disease control rating: tomato late blight; for Test D disease control rating (100 = 100% disease control, 0 = no disease control): tomato seedlings sprayed to run-off, inoculated the following day, rating relative to controls, unmarked compounds (standard test rate)
[3] = tested on: Puccinia recondita; assay: Test B: wheat leaf rust, preventive spray on wheat seedlings; details: for Test B disease control rating: wheat leaf rust; for Test B disease control rating (100 = 100% disease control, 0 = no disease control): wheat seedlings sprayed to run-off, inoculated the following day, rating relative to controls, unmarked compounds (standard test rate)
Outline: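 Preventive test: P. recondita spores were applied one day after a run-off spray of compound suspension on wheat seedlings. Plants had 24 h at 20 °C in saturated air plus 6 days in a 20 °C growth chamber. Scoring is % disease control (100 = full) relative to controls.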

[4] = tested on: Pyricularia oryzae; details: for Test C disease control rating: rice blast; for Test C disease control rating (100 = 100% disease control, 0 = no disease control): rice seedlings sprayed to run-off, inoculated the following day, rating relative to controls, unmarked compounds (standard test rate)
[5] = tested on: Eiysiphe graminis f. sp. tritici; assay: Test A: wheat powdery mildew, preventive spray on wheat seedlings; details: for Test A disease control rating: wheat powdery mildew; for Test A disease control rating (100 = 100% disease control, 0 = no disease control): wheat seedlings sprayed to run-off, inoculated the following day, rating relative to controls, unmarked compounds (standard test rate)
Outline: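 Preventive test: seedlings inoculated with powdery mildew spores one day after run-off spraying of a suspension. Ratings after 7 days in a 20° C growth chamber express percent disease control versus controls.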

[6] = 100 = 100% disease control, 0 = no control, unmarked entries (standard test concentration)
[7] = 100 = 100% disease control, 0 = no control relative to controls, unmarked entries (standard test concentration)

SMILES	Test E disease control rating [1, 6] [%]	Test D disease control rating [2, 6] [%]	Test B disease control rating [3, 6] [%]	Test C disease control rating [4, 6] [%]	Test A disease control rating [5, 7] [%]	Test E disease control rating (100 = 100% disease control, 0 = no disease control) [1] [%]	Test D disease control rating (100 = 100% disease control, 0 = no disease control) [2] [%]	Test B disease control rating (100 = 100% disease control, 0 = no disease control) [3] [%]	Test C disease control rating (100 = 100% disease control, 0 = no disease control) [4] [%]	Test A disease control rating (100 = 100% disease control, 0 = no disease control) [5] [%]	also measured
CC(C)(C)C(C#N)C(=O)NC/C=C/c1cccc(Cl)c1 (racemic) [compound 180]	0	76	0	74	61						
CCC1(C(=O)NC(C)COc2cc(I)ccc2C#N)C(C)C1(Cl)Cl (centres unmarked) [compound 247]						0	0	0	85	53	
CCC1(C(=O)NC(C)COc2ccccc2I)C(C)C1(Cl)Cl (mixture of isomers) [87b]											Test E disease control rating ([1]; tested at 40 ppm): 0%; Test D disease control rating ([2]; tested at 40 ppm): 0%; Test B disease control rating ([3]; tested at 40 ppm): 0%; Test C disease control rating ([4]; tested at 40 ppm): 0%; Test A disease control rating ([5]; tested at 40 ppm): 52%
CCC1(C(=O)NC(C)COc2ccccc2C(F)(F)F)C(C)C1(Cl)Cl (mixture of isomers) [94b]											Test E disease control rating ([1]; tested at 40 ppm): 0%; Test D disease control rating ([2]; tested at 40 ppm): 0%; Test B disease control rating ([3]; tested at 40 ppm): 0%; Test C disease control rating ([4]; tested at 40 ppm): 0%; Test A disease control rating ([5]; tested at 40 ppm): 71%
CCCC(C#N)C(=O)NC(C)C(Oc1ccccc1C#N)c1ccccc1 (mixture of isomers) [compound 288]						0	0	0	86	33	
C[C@H](COc1cc(F)ccc1Br)NC(=O)C(C#N)C(C)(C)C (single isomer, unassigned) [166a]	58	76	0	99	0						
CCCc1cccc(C#N)c1OCC(C)NC(=O)C1(CC)C(C)C1(Cl)Cl (mixture of isomers) [compound 255]						0	0	0	74	28	
C[C@H](COc1ccc(F)c(F)c1Br)NC(=O)C(C#N)C(C)(C)C (single isomer, unassigned) [187b]	6	91	68	94	77						
CC(COc1cc(I)ccc1C#N)NC(=O)C(C#N)C(C)(C)C (mixture of isomers) [compound 46]	0	66	0	53	0						
CCC1(C(=O)NC(C)COn2c(C#N)cc(Cl)c2C)C(C)C1(Cl)Cl (mixture of isomers) [140b]	0	38	28	74	63						
CC(COc1cc(C(C)(C)C)ccc1C#N)NC(=O)C(C#N)C(C)(C)C (mixture of isomers) [compound 305]						0	0	0	53	0	
C[C@H](COc1ccc(F)cc1Cl)NC(=O)C(C#N)C(C)(C)C (single isomer, unassigned) [37a]	0	68	68	100	62						
CCC1(C(=O)NC(C)COc2ccccc2)C(C)C1(Cl)Cl (mixture of isomers) [77b]											Test E disease control rating ([1]; tested at 40 ppm): 0%; Test D disease control rating ([2]; tested at 40 ppm): 0%; Test B disease control rating ([3]; tested at 40 ppm): 0%; Test C disease control rating ([4]; tested at 40 ppm): 74%; Test A disease control rating ([5]; tested at 40 ppm): 33%
CC(COc1ccccc1I)NC(=O)C(C#N)C(C)(C)C (mixture of isomers) [11a]	82	0	0	97	77						
CCC(C#N)C(=O)NC(C)C(Oc1cc(F)ccc1C#N)c1ccccc1 (mixture of isomers) [compound 286]						0	0	0	99	76	
C[C@H](COc1cc(F)cc(F)c1F)NC(=O)C(C#N)C(C)(C)C (single isomer, unassigned) [168b]	86	45	0	94	95						
C[C@H](COc1cc(F)ccc1F)NC(=O)C(C#N)C(C)(C)C (single isomer, unassigned) [28a]	0	68	28	100	38						
CCC1(C(=O)NC(C)COc2cc(F)cc(F)c2)C(C)C1(Cl)Cl (centres unmarked) [compound 234]						0	0	0	100	0	
C[C@H](COc1ccc(Cl)c(Cl)c1)NC(=O)C(C#N)C(C)(C)C (single isomer, unassigned) [181a]	69	56	0	86	0						
C=C(F)C(C)(C)C(C#N)C(=O)NC(C)COc1cc(F)ccc1F (mixture of isomers) [compound 217]						0	0	0	99	0	
C[C@H](COc1ccccc1)NC(=O)C(C#N)C(C)(C)C (single isomer, unassigned) [1d]	0	0	0	100	92						
C[C@H](COc1cccc(Br)c1)NC(=O)C(C#N)C(C)(C)C (single isomer, unassigned) [9c]	0	51	28	100	62						
